“Also recorded” adds a separate entry of the source.
What was measured:
[1] = target: IGF-1R on mouse microglia (primary retinal and brain microglia, BV2 cell line) (mouse) (UniProt Q60751); assay: cell-based or functional assay
[2] = tested on: human microglial cell line; assay: qPCR of IL-6 induction in LPS+ATP-stimulated human microglial cell line (IGF1R agonist / IGF1 antibody screen); type: cell-based; details: treatment 6 hours after LPS+ATP; compared with various IGF1 antibodies
Procedure: FIG. 8. Screening for anti-human IGF1 agonist antibody with a counter-inflammatory effect on microglial activation. Result of qPCR measuring levels of pro-inflammatory cytokine IL-6 induction in human microglial cell line that were stimulated by LPS and ATP (LPS+ATP) followed by treatment with IGF1R agonist Rg5 or various IGF1 antibodies 6 hours after LTP+ATP administration. […] Error bar=SEM. *P<0.05 by one way ANOVA.
qPCR was used to measure levels of pro-inflammatory cytokine IL-6 induction in a human microglial cell line stimulated by LPS and ATP (LPS+ATP) followed by treatment with IGF1R agonist Rg5 or various IGF1 antibodies 6 hours after LTP+ATP administration.

[3] = tested on: ischemic optic neuropathy in mice; assay: Mouse model of ischemic optic neuropathy, intravitreal injection; type: in vivo; details: intravitreal injections at days 1, 8 and 17 post injury; 4 weeks after induction
Source text: FIG. 9. Rescue of RGC function and vision by intravitreal injection of IGF1R agonist in a mouse model of ischemic optic neuropathy. Quantifications of electroretinogram positive scotopic threshold response (pSTR) amplitudes, visual acuity and contrast sensitivity before (Baseline) and at 4 weeks (4 wks) after induction of ischemic optic neuropathy in mice received intravitreal injections of control or RG5 IGF1R agonist at day 1, 8 and 17 post injury. Error bar=SEM. *P<0.05 by one way ANOVA.
The adult mice were dark adapted in a dark adaptation chamber overnight before conducting ERG. […] The pSTR was measured from the baseline to the peak of the positive deflection. […]
The mouse was placed on a small platform in the middle of the optomotor chamber. […] The contrast at a given spatial frequency is calculated using the formula (Lmax−Lmin)/(Lmax+Lmin) where Lmax is the brightness (in cd/m^2) of the white stripe, and Lmin is the brightness of the black stripe (in cd/m^2). Contrast level, stripe width, grating speed, and direction of stripe movement (clockwise vs. counterclockwise) were measured. According to the tracking of head movements on the mouse to the moving stripes, the visual acuity and contrast sensitivity can be measured. […] By changing the stripe width and the contrast, visual acuity and contrast sensitivity of mice can be assessed. […]

UniProt Q60751, sequence (Q60751 31-1373): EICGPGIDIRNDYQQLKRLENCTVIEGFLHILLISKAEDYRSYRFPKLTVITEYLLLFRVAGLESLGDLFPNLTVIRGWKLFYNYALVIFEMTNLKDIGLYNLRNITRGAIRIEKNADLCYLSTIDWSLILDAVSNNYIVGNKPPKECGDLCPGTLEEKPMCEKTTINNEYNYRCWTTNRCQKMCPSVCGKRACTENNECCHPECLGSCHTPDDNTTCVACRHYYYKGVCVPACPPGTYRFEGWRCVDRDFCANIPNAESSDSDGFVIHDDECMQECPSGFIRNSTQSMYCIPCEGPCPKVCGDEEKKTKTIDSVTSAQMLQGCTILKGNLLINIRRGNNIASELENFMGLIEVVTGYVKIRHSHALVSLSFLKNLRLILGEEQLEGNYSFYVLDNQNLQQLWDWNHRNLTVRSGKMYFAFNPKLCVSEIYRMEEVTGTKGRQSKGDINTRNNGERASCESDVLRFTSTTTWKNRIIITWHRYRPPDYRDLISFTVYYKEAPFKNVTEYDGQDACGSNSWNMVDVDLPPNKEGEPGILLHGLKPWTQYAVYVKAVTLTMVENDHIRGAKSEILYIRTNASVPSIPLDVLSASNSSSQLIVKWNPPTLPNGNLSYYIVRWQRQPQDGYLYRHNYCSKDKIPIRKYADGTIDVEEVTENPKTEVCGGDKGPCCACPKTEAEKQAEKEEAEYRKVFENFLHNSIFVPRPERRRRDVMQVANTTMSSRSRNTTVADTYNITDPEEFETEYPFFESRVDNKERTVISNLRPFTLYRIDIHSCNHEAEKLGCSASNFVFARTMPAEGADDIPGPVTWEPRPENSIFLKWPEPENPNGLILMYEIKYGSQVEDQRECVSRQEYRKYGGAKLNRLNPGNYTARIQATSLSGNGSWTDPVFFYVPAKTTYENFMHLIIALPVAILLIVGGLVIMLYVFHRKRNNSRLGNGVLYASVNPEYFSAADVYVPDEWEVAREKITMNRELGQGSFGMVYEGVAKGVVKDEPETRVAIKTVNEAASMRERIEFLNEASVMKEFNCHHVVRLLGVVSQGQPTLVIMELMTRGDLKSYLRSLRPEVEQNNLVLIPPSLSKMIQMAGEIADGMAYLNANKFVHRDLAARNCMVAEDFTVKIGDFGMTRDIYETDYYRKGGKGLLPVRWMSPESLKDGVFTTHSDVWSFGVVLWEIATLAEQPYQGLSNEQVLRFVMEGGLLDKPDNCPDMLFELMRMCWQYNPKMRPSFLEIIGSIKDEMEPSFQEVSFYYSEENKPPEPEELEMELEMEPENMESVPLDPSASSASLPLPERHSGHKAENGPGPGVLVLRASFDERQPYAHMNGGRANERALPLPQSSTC

For “insulin-like growth factor binding protein like protein 1 (IGFBPL1), recombinant (R&D system, 4130-BL) (from UniProt Q80W15 18-270) (ligand)”, the PI3K phosphorylation (Western blot, BV2 microglia) [1] was 8 fold.

CC(C)=CC/C=C(\C)[C@H]1CC[C@]2(C)[C@@H]1[C@H](O)C[C@@H]1[C@@]3(C)CC[C@H](O[C@@H]4O[C@H](CO)[C@@H](O)[C@H](O)[C@H]4O[C@@H]4O[C@H](CO)[C@@H](O)[C@H](O)[C@H]4O)C(C)(C)[C@@H]3CC[C@]12C [Rg5, ginsenoside RG5] was tested, and the “Anti-inflammatory effect on IL-6 induction (qPCR)” value [2] was “largest anti-inflammatory effect; also recorded: greatest anti-inflammatory effect” and the “RGC function (pSTR amplitudes) and vision (visual acuity, contrast sensitivity)” value [3] was “protects RGC function and vision against ischemic optic neuropathy-induced functional loss”.
